This is an account of results in patent US20080008716A1, “Combined Pharmaceutical Composition Comprising an Anti-4-1BB Monoclonal Antibody and Chemotherapeutic Anti-Cancer Agent for Preventing and Treating Cancer Disease” (ULSAN INDUSTRIAL EDUCATION FOUNDATION, priority 2006, published 2008).

In assay [1] the test system is B16F10 melanoma cell. As to the kind of experiment: Anticancer effect of anti-4-1BB antibody combined with other chemotherapeutic anti-cancer agents; tumor size and survival. Particulars: for growth rate of cancer tissue / survival rate of mice / anticancer effect / activity: given simultaneously with B16F10, FIG. 3; for growth rate of cancer tissue: chemotherapeutic once (Cis 50 or 200 μg, 5-FU 800 or 10,000 μg, irinotecan 2 mg, paclitaxel 200 or 500 μg i.p.; Doxo 200 or 400 μg i.v.), antibody 100 μg, vs rat IgG control; for survival rate of mice / anticancer effect / activity: same doses as E16.
Description: 4×10^5 cells of B16F10 melanoma cell were injected to the back of C57BL/6 mice to occur tumor in a similar method in
At the same time, 100 μg of anti-4-1BB monoclonal antibody and/or 50 or 200 μg of cisplatin, 800 or 10,000 μg of 5-fluorouracil (5-FU), 2 mg of irinotecan and 200 or 500 μg of paclitaxel (Taxel) were intraperitoneally injected into the mice once respectively and the anti-4-1BB monoclonal antibody was further injected into the peritoneal cavity at 6 times per every 5 days. 100 μg of anti-4-1BB monoclonal antibody and/or 200 or 400 μg of Doxorubicin (Doxo) were injected into the vein and an anti-4-1BB monoclonal antibody was injected into the peritoneal cavity at 6 times per every 5 days. The size of tumor and the survival rates of the mice were analyzed during the test period (See FIG. 3).

Assay [2] concerns draining lymph node cell (CD4 and CD8 T cells). Briefly: Lymphocyte repopulation: cell number, CD4 and CD8 T cells in draining lymph node of tumor-bearing mice. In kind it is in vivo, C57BL/6 mice. The method, then:
The ratio of immune cell in each sample was analyzed with FACScan (BD Bioscience, USA), and the number of infiltrated CD4+ CD8+ T cells in tumor tissue was calculated by following Math FIG. 1
Accordingly, it was anticipated that the sustainable treatment effect of cancer by the combined treatment with CTX and anti-4-1BB antibody would be involved in the repopulation of T cell showing anticancer activity.

The next assay has as its system IFN-γ. As to the kind of experiment: IFN-γ expression of CD4 and CD8 T cells of draining lymph node (intracellular staining, FACScan). Particulars: 17th day after treating, FIG. 5a.
In assay [3] the test system is B16F10 melanoma cell.
Description: (§1) C57BL/6 male mice (Harlan Laboratories, Indianapolis, Ind.) were used as an experiment animal. The mice had been bred allowing freely accessible to water and feed and maintaining the temperature to 21±2° C. in 12 hours of light/dark cycle before use in test. B16F10(ATCC CRL-6475, USA), a melanoma cell line of mouse, was cultured in DMEM medium (Dulbeco's modified eagle's medium, GIBCO BRL, USA) containing 10% FBS (Fetal Bovine Serum; Gibco BRL, NY), 2 mM L-glutamine, 100 U/l penicillin (Invitrogen, USA) and 100 μg/ml streptomycin (Invitrogen, USA).
(§2) 4×10^5 cells of B16F10 melanoma cell were subcutaneously injected to the back of mice to occur tumor. At the same time, 100 μg of anti-4-1BB monoclonal antibody and 3 mg of CTX were intraperitoneally injected into the mice and the antibody was further injected thereto at the interval of five days. […] The size and survival rate of the mice were periodically determined.
3 mg of CTX were injected into the peritoneal cavity of the mice at 5th days and 10th days after injecting cancer cells, anti 4-1BB antibody was injected into the peritoneal cavity at 6 times per every 5 days from 5th days or 10th days after injecting cancer cells.
Assay [4] deals with B16F10 melanoma cell. This is another data set of the same source.
Description: as §1, §2
At the same time, 100 μg of anti-4-1BB monoclonal antibody and 3 mg of CTX were intraperitoneally injected to the mice once and anti-4-1BB monoclonal antibody was injected into the peritoneal cavity at 6 times per every 5 days. The tumor size and the survival rates of mice were analyzed during the test period (See FIG. 1)

Molecules are shown by their SMILES.

Description for IFN-γ: At 1st, 2nd, 4th, 8th, 12th, 16th, 20th, 24th days after the injection, the closest draining lymph node (inguinal lymph node) to tumor tissue in each group was isolated from the mice to determine the expression of IFN-γ (Kim Y H et al., Cell. Immunol., 238(2), pp 76˜86, 2005). To stain the IFN-γ cytokine in cell, lymph-node cell suspension was prepared from each group and the separated cells were cultured in culture medium containing Brefeldin A (BD Bioscience, USA) for 6 hours after treating with 50 ng/ml of PMA and 500 mg/ml of Ionomycin (Sigma, USA). […] The cells was then stained with anti-IFN-γ-PE (eBioscience, USA) using by Cytofix/cytoperm (BD Pharmingen, USA) with the manual of manufacturing company and analyzed with FACScan (BD Bioscience, USA).
3 mg of CTX and/or 100 μg of anti-4-1BB antibody were treated to the tumor-injected mice once and the cell was separated from the experimental group at 17th day when the cell started to launch the repopulation after treating with CTX and at 22nd day when the repopulation of the cell in lymph node was enough and the expression of IFN-γ was analyzed with FACScan (BD Bioscience, USA) with the method disclosed in Example 3.

As to `O=c1[nH]cc(F)c(=O)[nH]1` [5-FU, 5-fluorouracil], in the assay with B16F10 melanoma cell [1], the “growth rate of cancer tissue” value is “decreased in a dose dependent manner” and the “survival rate of mice” value was “increased”.
With `O=P1(N(CCCl)CCCl)NCCCO1` (stereo not drawn) [CTX, cyclophosphamide], in assay [2] (B16F10-bearing mice, FIG. 4a), the “number of cell in lymph node” value is recorded as “temporarily been decreased” and the “time after injecting cancer cell at which number of cell in lymph node increased” value was “around 16 days”. Besides, the “level of lymph node cell number comparing with mice treated with rat IgG or anti-4-1BB” value in assay [2] (after recovery of the cell number) is given as “less than ½ to ⅕”. For the same compound, the “day after which number of CD4 and CD8 T cell was recovered to normal range” value in assay [2] (draining lymph node) was > 14 days. For the same compound, the “number of CD4 and CD8 T cell” value in assay [2] (draining lymph node, FIG. 4b, 4c) was “decreased”. In the assay with IFN-γ, the “IFN-γ expression of T cell” value was in the range of 2 to 3%. Further, the anti-cancer activity entry in the assay on B16F10 melanoma cell [3] (treatment at 5th day after injecting cancer cell) is “did not show any effect on the anti-cancer activity”. The growth of tumor result with B16F10 melanoma cell [3] (treatment from 10th day after injecting cancer cells, FIG. 2c) is “did not show any change”. Also, the survival of mice result in the assay on B16F10 melanoma cell [3] (treatment from 10th day after injecting cancer cells, FIG. 2d) is recorded as “did not show any change”. Also, the “growing rate of tumor / growth of cancer” value in the assay on B16F10 melanoma cell [4] (treatment at the same time as 4×10^5 B16F10 cells, 100 μg antibody i.p. 6 times per every 5 days, 3 mg CTX i.p. once, FIG. 1) is recorded as “potent inhibiting effect on the growth of cancer”. Further, the “day after injecting cancer cells until which tumor size was not increased” value in the assay with B16F10 melanoma cell [4] (treatment at the same time as B16F10 injection) was found to be 30 days. In the assay on B16F10 melanoma cell [4] (treatment at the same time as B16F10 injection, versus mice injected with only B16F10 (all died around 30th day)), the “survival of mice extended for” value is on record as 20 days.
Take `COc1cccc2c1C(=O)c1c(O)c3c(c(O)c1C2=O)C[C@@](O)(C(=O)CO)C[C@@H]3O[C@H]1C[C@H](N)[C@H](O)[C@H](C)O1` [Doxorubicin]: in the assay with B16F10 melanoma cell [1], the “growth rate of cancer tissue” value is listed as “had been decreased”, the “anticancer effect / activity” value is listed as “strong anticancer effect in a dose dependent manner” and the “survival rate of mice” value is “remarkably increased”.
With `CCc1c2c(nc3ccc(OC(=O)N4CCC(N5CCCCC5)CC4)cc13)-c1cc3c(c(=O)n1C2)COC(=O)[C@]3(O)CC` [Irinotecan, irinotecan], the “time within which most of mice died” value in the assay on B16F10 melanoma cell [1] (2 mg irinotecan i.p. once) is ≤ 30 days. For the same compound, in the assay with B16F10 melanoma cell [1], the “anticancer effect / activity” value is given as “strong anticancer effect in a dose dependent manner”.
On to `CC(=O)O[C@H]1C(=O)[C@@]2(C)[C@H]([C@H](OC(=O)c3ccccc3)[C@]3(O)C[C@H](OC(=O)[C@H](O)[C@@H](NC(=O)c4ccccc4)c4ccccc4)C(C)=C1C3(C)C)[C@]1(OC(C)=O)CO[C@@H]1C[C@@H]2O` [Paclitaxel, paclitaxel], for which, in the assay with B16F10 melanoma cell [1], the “growth rate of cancer tissue” value is “slightly slowed”, the “anticancer effect / activity” value is “a little lower inhibiting effect of the growth of B16-F10 melanoma comparing with other anticancer agents” and the “survival rate of mice” value is listed as “slightly increased”.
As to `N.N.[Cl][Pt][Cl]` [cisplatin], in the assay on B16F10 melanoma cell [1], the “growth rate of cancer tissue” value is recorded as “decreased in a dose dependent manner” and the “survival rate of mice” value is recorded as “partly increased”.
